Reference: patent US20200239530A1, “COMPOUNDS AND METHODS OF MODULATING PROTEIN DEGRADATION” (Vividion Therapeutics, Inc., priority 2017, published 2020)
One block for each molecule: values may come before it.

Columns and labels:
Assay in all cases: Competitive cysteine profiling of cell lysate with desthiobiotin iodoacetamide probe (96-well sample prep)
Assay type in all cases: binding
[1] = molecular target: T1, cysteine residue illustrated in Table 1A or Table 2A (Homo sapiens, UniProt O95628); settings: UniProt O95628; 100 uM
T1 construct: endogenous in cells
T1 sequence (O95628 1-575): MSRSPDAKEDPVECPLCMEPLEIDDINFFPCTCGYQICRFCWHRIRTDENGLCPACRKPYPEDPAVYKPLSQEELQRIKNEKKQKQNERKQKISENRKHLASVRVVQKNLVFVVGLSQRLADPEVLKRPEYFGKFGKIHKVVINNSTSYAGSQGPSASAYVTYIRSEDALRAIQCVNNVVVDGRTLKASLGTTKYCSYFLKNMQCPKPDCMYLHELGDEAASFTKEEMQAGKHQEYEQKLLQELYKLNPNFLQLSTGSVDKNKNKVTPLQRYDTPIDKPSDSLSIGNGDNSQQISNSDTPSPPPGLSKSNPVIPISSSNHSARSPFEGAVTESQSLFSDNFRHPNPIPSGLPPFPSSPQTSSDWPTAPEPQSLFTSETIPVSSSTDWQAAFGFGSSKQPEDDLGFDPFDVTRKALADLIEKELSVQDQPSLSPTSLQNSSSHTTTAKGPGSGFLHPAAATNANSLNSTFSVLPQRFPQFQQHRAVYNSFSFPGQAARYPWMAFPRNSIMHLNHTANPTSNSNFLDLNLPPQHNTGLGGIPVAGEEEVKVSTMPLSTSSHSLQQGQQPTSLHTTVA
Experimental: (§1) In some embodiments, the solution sample (e.g., cell sample, cell lysate sample, or comprising isolated proteins) is incubated with a compound of Formula (I) for analysis of protein-probe interactions. In some instances, the solution sample (e.g., cell sample, cell lysate sample, or comprising isolated proteins) is further incubated in the presence of an additional compound probe prior to addition of the compound of Formula (I). […] In such instances, the solution sample is incubated with a probe and a ligand for competitive protein profiling analysis.
(§2) The following 96-well sample prep protocol was used for sample preparation.
(§3) Cells were resuspended in cold PBS on ice and sonicated with a probe sonicator to achieve lysis. 200 μL of lysate containing 5 mg/ml proteome was treated with 2 μL of 100× compound stock in a 2-mL deep-well plate. The treated lysate was subsequently incubate at 25° C. for 1 hr with shaking at 600 rpm. The treated lysate was further incubated with 2 μL of 10 mM desthiobiotin iodoacetamide probe at 25° C. for 1 hr with shaking at 600 rpm. Next, the lysate was further treat with 20 μL of solution of PBS containing 11 mM MgSO4 and 2.5% Turbonuclease stock and incubated at 25° C. for 20 minutes with shaking at 600 rpm. 1.7 mL ice-cold acetone was added to each well and incubated at −20° C. for 2 hr, followed by max speed (4200 rpm) spin for 45 min. Acetone was then decanted and the plates were blotted to remove acetone. The plates were then dried in open air for 20 minutes. After drying, the plates were then covered with foil seal and stored at −80° C. overnight.
(§4) The next day, samples were re-suspended in 90 μL of solution of 9M urea, 50 mM ammonium bicarbonate and 10 mM DTT by incubating at 65C for 20 min with shaking at 1500 rpm. Next, samples were cooled to 37° C. and then 10 μL of 500 mM iodoacetamide solution (92.48 mg/ml) was added. The samples were then incubated at 37° C. for 30 min with shaking at 600 rpm.
(§5) ZEBA desalting plates were equilibrated 4 times using 250 μL of 2M urea, 50 mM ammonium bicarbonate solution followed by centrifugation at 1500 rpm for 2 minutes. After equilibration was complete, samples were applied to ZEBA desalting plate and spin at 1500 rpm for 2 min on top of 1 mL 96-well deep-well collection plate to buffer exchange samples. 4 μL of solution containing 25 mM CaCl2 and 0.25 mg/mL trypsin was added to the plate and the plate was then incubated at 37° C. for 2 hrs with shaking at 600 rpm. 300 μL of solution containing 5% high-capacity streptavidin agarose slurry in 25 mM Tris-HCl pH 7.5, 150 mM NaCl, and 0.1% NP-40 then added. The plate was incubated at 25° C. for 2 hrs with shaking at 600 rpm. Samples were transferred to 25 μm filter plate and spin at 1000 rpm for 2 min. Samples were then washed 3 times with 0.75 mL of wash buffer (25 mM Tris-HCl pH 7.5, 150 mM NaCl, and 0.1% NP-40) followed by washing 3 times with 0.75 mL PBS, and then 4 times with 0.75 mL water. After the washing step, samples were eluted into polypropylene 96-well plate by addition of 250 µL of 50% MeCN/water, 0.1% formic acid and allowed to gravity drip for 10 min, followed by centrifugation at 1000 rpm for 2 min. Speedvac was used to dry the plates at about 45° C. for […]. Then the plates were covered with foil seal and stored at −20° C.
(§6) Samples were resuspended by addition of 20 μl of 12.5% ACN, 0.1% formic acid solution, covered with foil seal, and incubated at 42° C. for 10 minutes with shaking at 600 rpm. Then add 30 μL of 0.1% formic acid solution was added and the plate was covered and incubated at 42° C. for 10 minutes with shaking at 600 rpm. Seal plate was then sealed with a 96-well silicon mat for analysis.

[2] = molecular target: T2, cysteine residue illustrated in Table 1A or Table 2A (Homo sapiens, UniProt P0C7V8); settings: UniProt P0C7V8; 500 uM
T2 construct: Cells were resuspended in cold PBS on ice and sonicated with a probe sonicator to achieve lysis; endogenous in cells
T2 sequence (P0C7V8 whole entry): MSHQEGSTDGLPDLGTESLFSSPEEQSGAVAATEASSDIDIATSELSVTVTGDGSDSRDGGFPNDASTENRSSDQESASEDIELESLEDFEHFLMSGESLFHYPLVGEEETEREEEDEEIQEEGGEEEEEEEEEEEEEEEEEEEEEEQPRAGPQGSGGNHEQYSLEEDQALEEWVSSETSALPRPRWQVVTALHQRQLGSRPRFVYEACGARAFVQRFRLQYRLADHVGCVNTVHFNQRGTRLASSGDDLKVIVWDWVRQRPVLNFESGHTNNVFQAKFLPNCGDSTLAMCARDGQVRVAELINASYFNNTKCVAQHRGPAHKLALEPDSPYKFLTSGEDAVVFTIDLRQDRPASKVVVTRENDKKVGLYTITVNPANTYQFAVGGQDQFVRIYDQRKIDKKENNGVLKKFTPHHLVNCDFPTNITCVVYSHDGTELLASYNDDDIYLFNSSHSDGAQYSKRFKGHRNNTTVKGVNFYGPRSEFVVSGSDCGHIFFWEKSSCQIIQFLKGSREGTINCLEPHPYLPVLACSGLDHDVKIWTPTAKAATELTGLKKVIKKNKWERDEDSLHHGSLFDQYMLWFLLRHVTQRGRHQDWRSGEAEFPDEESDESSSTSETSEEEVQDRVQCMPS
Experimental: as §1, §2, §3, §4, §5, §6

[3] = molecular target: T3, cysteine residue illustrated in Table 1A or Table 2A (Homo sapiens, UniProt P40337); settings: UniProt P40337
T3 construct: Cells were resuspended in cold PBS on ice and sonicated with a probe sonicator to achieve lysis; endogenous in cells
T3 sequence (P40337 whole entry): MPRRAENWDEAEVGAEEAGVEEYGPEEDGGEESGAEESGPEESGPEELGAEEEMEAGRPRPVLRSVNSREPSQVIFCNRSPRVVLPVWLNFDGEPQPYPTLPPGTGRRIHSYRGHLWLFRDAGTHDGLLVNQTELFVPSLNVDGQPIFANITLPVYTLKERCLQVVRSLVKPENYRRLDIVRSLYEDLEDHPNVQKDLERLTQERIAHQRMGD
Experimental: as §1, §2, §3, §4, §5, §6

[4] = molecular target: T4, cysteine residue illustrated in Table 1A or Table 2A (Homo sapiens, UniProt Q7Z4G1); settings: UniProt Q7Z4G1; 100 uM
T4 construct: Cells were resuspended in cold PBS on ice and sonicated with a probe sonicator to achieve lysis; endogenous in cells
T4 sequence (Q7Z4G1 whole entry): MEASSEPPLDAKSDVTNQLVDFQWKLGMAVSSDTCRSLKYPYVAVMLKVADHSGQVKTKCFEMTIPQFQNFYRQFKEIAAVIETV
Experimental: as §1, §2, §3, §4, §5, §6

KB05_100 uM_percent_inhibition [1]: 94%
KB05_500 uM_percent_inhibition [2]: 63%
KB05_100 uM_percent_inhibition ([3]; KB05 100 uM): 15%
KB05_500 uM_percent_inhibition ([3]; KB05 500 uM): 32%
KB05_100 uM_percent_inhibition [4]: 33%
SMILES: C=CC(=O)N(c1ccccc1)c1ccc(Br)cc1 [KB05]

SMILES: O=C(CCl)Nc1cc(C(F)(F)F)cc(C(F)(F)F)c1 [KBO3]
KB03_100 uM_percent_inhibition [1]: 13%
KB03_500 uM_percent_inhibition [2]: 41%
KB03_100 uM_percent_inhibition ([3]; KB03 100 uM): 19%
KB03_100 uM_percent_inhibition [4]: 33%

SMILES: COc1ccc2c(c1)CCCN2C(=O)CCl [KB02]
KB02_100 uM_percent_inhibition [1]: 6%
KB02_500 uM_percent_inhibition [2]: 55%
KB02_100 uM_percent_inhibition ([3]; KB02 100 uM): 12%
KB02_100 uM_percent_inhibition [4]: 22%
